Compared with `Clc1ccccc1CSc1nc(-c2ccc(Br)cc2)cc(-c2ccc(Br)cc2)n1` [Compound 6a, 4,6-Bis(4-bromophenyl)-2-((2-chlorobenzyl)thio)pyrimidine], `Fc1ccccc1CSc1nc(-c2ccc(Br)cc2)cc(-c2ccc(Br)cc2)n1` [Compound 6d, 4,6-Bis(4-bromophenyl)-2-((2-fluorobenzyl)thio)pyrimidine] is higher in melting point: 147 to 148 °C for the first, 149 to 150 °C for the second.

First: Clc1ccc(CSc2nc(-c3ccc(Br)cc3)cc(-c3ccc(Br)cc3)n2)cc1 [Compound 6b, 4,6-Bis(4-bromophenyl)-2-((4-chlorobenzyl)thio)pyrimidine]
Second: Cc1ccc(-c2cc(-c3ccc(Br)cc3)nc(SCc3ccc(F)cc3)n2)cc1 [Compound 6l, 4-(4-Bromophenyl)-2-((4-fluorobenzyl)thio)-6-(p-tolyl)pyrimidine]
The melting point of the first is higher: 176 to 178 °C for the first, 115 to 124 °C for the second.

First: Cc1ccc(-c2cc(-c3cccc(Br)c3)nc(SCc3ccccc3Cl)n2)cc1 [Compound 6f, 4-(3-Bromophenyl)-2-((2-chlorobenzyl)thio)-6-(p-tolyl)pyrimidine]
Second: Cc1ccc(-c2cc(-c3cccc(Br)c3)nc(SCc3ccccc3F)n2)cc1 [Compound 6i, 4-(3-Bromophenyl)-2-((2-fluorobenzyl)thio)-6-(p-tolyl)pyrimidine]
The melting point of the first is higher: 107 to 110 °C for the first, 100 to 104 °C for the second.

`Cc1ccc(-c2cc(-c3ccc(Br)cc3)nc(SCc3ccccc3Br)n2)cc1` [Compound 6k, 2-((2-Bromobenzyl)thio)-4-(4-bromophenyl)-6-(p-tolyl)pyrimidine] and `Cc1ccc(-c2cc(-c3ccc(Br)cc3)nc(SCc3ccccc3F)n2)cc1` [Compound 6m, 4-(4-Bromophenyl)-2-((2-fluorobenzyl)thio)-6-(p-tolyl)pyrimidine] cannot be ordered by melting point: 123 to 126 °C for the first, 124 to 127 °C for the second.

First: Cc1ccc(-c2cc(-c3ccc(Br)cc3)nc(SCc3cccc(F)c3)n2)cc1 [Compound 6n, 4-(4-Bromophenyl)-2-((3-fluorobenzyl)thio)-6-(p-tolyl)pyrimidine]
Second: Cc1ccc(-c2cc(-c3ccc(Br)cc3)nc(SCc3ccccc3)n2)cc1 [Compound 6o, 2-(Benzylthio)-4-(4-bromophenyl)-6-(p-tolyl)pyrimidine]
The melting point of the first is lower: 106 to 109 °C for the first, 129 to 130 °C for the second.

First: Cc1ccc(-c2cc(-c3cccc(Br)c3)nc(SCc3ccc(Br)cc3)n2)cc1 [Compound 6r, 2-((4-Bromobenzyl)thio)-4-(3-bromophenyl)-6-(p-tolyl)pyrimidine]
Second: Fc1cccc(CSc2nc(-c3ccc(Br)cc3)cc(-c3cccc(Br)c3)n2)c1 [Compound 6t, 4-(3-Bromophenyl)-6-(4-bromophenyl)-2-((3-fluorobenzyl)thio)pyrimidine]
The melting point of the first is higher: 135 to 138 °C for the first, 94 to 96 °C for the second.

In the case of `Clc1ccccc1CSc1nc(-c2ccc(Br)cc2)cc(-c2cccc(Br)c2)n1` [Compound 6s, 4-(3-Bromophenyl)-6-(4-bromophenyl)-2-((2-chlorobenzyl)thio)pyrimidine], the melting point is reported as 129 to 132 °C.

Source: article PMC6150375, “Synthesis, Biological Evaluation and Molecular Docking Study of 2-Substituted-4,6-Diarylpyrimidines as α-Glucosidase Inhibitors” (Molecules : A Journal of Synthetic Chemistry and Natural …, 2017)
